Measured values: patent publication US6749832B2, “Labelled ascorbic acid derivatives” (Amersham PLC, priority 1999, dated 2004)

Experiments:
[1] = tested on: MC3T3-E1 murine pre-osteoblast cells; assay: Standard cell uptake assay: competition for uptake of ^14C-ascorbic acid; format: cell-based; conditions: for IC50: Mus musculus, competition with ^14C-ascorbic acid uptake into MC3T3-E1 cells; for Competition: competition with 125 μM ^14C-ascorbic acid for uptake into MC3T3-E1 cells, 60 min
Method: Unlabelled ascorbic acid derivatives of the present invention have been tested for their ability to compete for uptake of ^14C-ascorbic acid into MC3T3-E1 cells, a murine pre-osteoblast cell line. MC3T3-E1 cells are grown in tissue culture plates and the appropriate assay solution containing a standard concentration of ^14C-ascorbic acid plus a competing concentration of ascorbic acid derivative added to each well. The amount of ^14C-ascorbic acid taken up by the cells in 60 min is then measured.
Standard Cell Uptake Assay
Transport buffer: 134 mM NaCl, 5.4 mM KCl, 1.8 mM CaCl2, 0.8 mM MgSO4, 20 mM HEPES, 10 mM glucose, pH7.3, stored at room temperature
Assay buffer: Transport buffer+40 μM […] ^14C-ascorbic acid (Amersham Pharmacia Biotech)
Stock solution: 50 μCi in 50 μl Analar water, stored at −20° C.
Assay solution: 200 nCi ^14C-ascorbic acid in 200 μl assay buffer/well (125 μM)
Stop buffer: 200 μM phloretin in assay buffer, chilled to 4° C.
Lysis solution: 0.1% SDS in Analar water
MC3T3-E1 murine pre-osteoblast cells were seeded in a 24-well plate at 2×10^5 cells/well in 1 ml minimal essential media plus 10% FCS, penicillin and streptomycin. Cells were grown overnight at 37° C., 5% CO2. Assay buffer and solutions were prepared on the morning of the assay. Cells were examined under the microscope for confluence and viability. Growth media was removed using a Liquipippette and each well washed with 2×200 μl assay buffer. The appropriate assay solution was added to each well and the plate incubated at 37° C. for the required time. To stop the reaction, 0.5 ml chilled stop buffer was added to each well. Each well was then washed with 0.5 ml stop buffer. Cells were lysed in 0.1% SDS solution for approximately 10 min and solutions transferred to scintillation vials. Each well was then washed with assay buffer and this wash solution also transferred to the appropriate scintillation vial. Scintillation fluid (5 ml) was added to each vial, the vials vortexed and counted on a Rackbeta counter.

[2] = reported in the literature; cited from earlier work
[3] = tested on: mineralising nodules of primary rat osteoblasts; assay: Autoradiography of mineralised bone nodules produced by cultured rat osteoblasts; format: cell-based; conditions: 21-day culture period
Method: Foetus heads were collected and sprayed with 70% isopropanol. Calvaria were then removed by cutting the skin from the top of the head, making one incision through the calvaria from the external auditory meatus across behind the parietal bones and a second forward to above the eye sockets. When all the calvaria were isolated, they were rinsed with PBS (Ca^2+ and Mg^2+-free), then incubated in trypsin at 37° C. for 10 minutes. Calvaria were transferred into 0.2% collagenase (type II) in HBSS for 30 minutes at 37° C. This collagenase digestion was repeated for 60 minutes to release the osteoblast populations. Supernatant was removed and spun down to obtain a cell pellet. The pellet was resuspended in media, viable cells counted and plated out into a T75 flask. Once confluent, cells were subcultured into 6-multiwell plates at 2×10^4-2×10^5 cells/well in 3 ml medium containing 1 mM β-glycerophosphate. In addition ascorbic acid (50 μg/ml), ^14C-ascorbic acid (19.6 μCi/ml) or ^14C-compound 7 (2.8 μCi/ml) were incubated with osteoblasts over the culture period. Cells were fed two to three times per week and cultured for up to 21 days. Nodules became macroscopically visible at around 7-10 days and commenced mineralisation (assessed by Alizarin red staining) soon after. […]

IC50 [1] [µM]	Compound	Competition [1]	further results
1850	O=C1OC(C(O)CSc2ccccc2)C(O)=C1O (stereo not drawn) [Compound 16]	Yes	competition for uptake of ^14C-ascorbic acid into MC3T3-E1 cells (text) [1]: competed; competition for uptake of ^14C-ascorbic acid into MC3T3-E1 cells (text) ([1]; listed as compound 16): very weak
258	O=C1O[C@H]([C@@H](O)CO)C(O)=C1O [Ascorbic acid, ascorbic acid]	Yes	–
796	O=C(/C=C/I)OCC(O)C1OC(=O)C(O)=C1O (stereo not drawn) [Compound 15]	Yes	–
384	O=C1O[C@H]([C@@H](O)COC(=O)c2ccc(I)cc2)C(O)=C1O [Compound 12, 6-O-(4-iodobenzoyl)-L-ascorbic acid]	Yes	–

The remaining lines, values behind:

Compound	IC50 [1] [µM]	Competition [1]	further results
O=C1O[C@H]([C@@H](O)C[18F])C(O)=C1O [^18F-DFA, 6-deoxy-6-[^18F]fluoro-L-ascorbic acid]	–	–	bone uptake [2]: very low
O=C1O[C@H]([C@@H](O)CO)C(O)=C1O [^14C-ascorbic acid]	–	–	association with / accumulation in mineralised bone nodules (autoradiography) [3]: associated with the mineralising nodules
